Marks after values point to notes of the source that are not given here.
Columns and labels:
[1] = tested on: delayed-type allergic reaction in the skin; conditions: animal model; Non-patent Document 1; cited from earlier work
[2] = tested on: chronic dermatitis models; conditions: Non-patent Document 2; cited from earlier work
[3] = tested on: oxazolone-induced ear swelling; assay: Inhibitory effects on oxazolone-induced ear swelling in mice (Test Example 2); format: in vivo; conditions: dose 1.2 μg/site, 0.03 mg/mL in acetone applied to inner and outer side of the ear 3 hours before and 2 hours after inducing the reaction, ear thickness 24 hours after induction, BALB/c mice
Protocol: Six-week-old BALB/c mice (male, Charles River Japan, Inc.) were purchased. […] The mice were placed in plastic cages (6 mice per cage) in a breeding room which was kept at a room temperature (19 to 25° C.) and a humidity of 30 to 70% and was illuminated for 12 hours a day (from 7:00 a.m. to 7:00 p.m.). The mice were allowed to freely intake commercially available pellets and water.
As an antigen solution, Oxazolone (Sigma-Aldrich) was dissolved in acetone (Kanto Kagaku) to prepare 0.5 w/v % of oxazolone-acetone solution. BALB/c mice were each applied with 100 μL of the antigen solution to the shaved abdomen for sensitization. Mice were shaved on abdomen on the previous day of the sensitization. […] Ear thickness was measured with a dial thickness gauge (Ozaki Seisakusho) just before and 24 hours after inducing the reaction, and the difference in the thickness was used as an indication of ear swelling. The inhibition ratio (%) against ear swelling was calculated using the following: Inhibition ratio (%)=[{(value in positive control group)−(value in test compound administration group)}/{(value in positive control group)−(value in negative control group)}]×100 Test compound administration group: Compound (I) administration group, prednisolone administration group or combined administration group

COc1ccc([C@]2(C#N)CC[C@@H](C(=O)O)CC2)cc1OC1CCCC1 [SB207499]
Effect on delayed-type allergic reaction in the skin [1]: inhibit a delayed-type allergic reaction in the skin | Therapeutic effects on chronic dermatitis models [2]: exhibit therapeutic effects

C[C@]12C=CC(=O)C=C1CC[C@@H]1[C@@H]2[C@@H](O)C[C@@]2(C)[C@H]1CC[C@]2(O)C(=O)CO [prednisolone]
Inhibition Ratio (ear swelling) [3]: 18% | Inhibition Ratio (ear swelling) ([3]; listed as Predonisolone): 18%***

Reference: patent US20070287689A1, “Therapeutic And/Or Preventive Agents For Chronic Skin Diseases” (KYOWA HAKKO KOGYO CO., LTD., priority 2004, published 2007)
